The source of these data is paper PMC10175918 (Communications Biology, 2023).

What all share (test): TGFα-shedding assay-based GPCR screening with chimeric Gα subunit proteins
Common to all, as to assay type: cell-based

The target in experiment [1] is T1, 348 GPCRs (Homo sapiens, UniProt Q9Y2T5).
T1 construct: expressed in transfected cells; host or cells: HEK293A

Experiment [2] addresses T2, 348 GPCRs (Homo sapiens, UniProt Q9Y2T6).
T2 construct: expressed in transfected cells; host or cells: HEK293A

In experiment [3] the target is T3, 348 GPCRs (Homo sapiens, UniProt P48146).
T3 construct: expressed in transfected cells; host or cells: HEK293A
T3 sequence (P48146 whole entry): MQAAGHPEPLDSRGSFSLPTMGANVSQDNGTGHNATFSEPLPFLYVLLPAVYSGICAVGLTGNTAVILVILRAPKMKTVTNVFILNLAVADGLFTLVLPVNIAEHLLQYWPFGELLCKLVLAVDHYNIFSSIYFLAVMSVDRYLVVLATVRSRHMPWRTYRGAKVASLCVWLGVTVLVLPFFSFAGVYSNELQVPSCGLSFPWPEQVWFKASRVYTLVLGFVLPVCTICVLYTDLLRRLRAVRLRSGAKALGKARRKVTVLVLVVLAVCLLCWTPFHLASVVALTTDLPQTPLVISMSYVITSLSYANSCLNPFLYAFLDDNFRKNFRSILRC
The settings on record: 10µM, Favipiravir 100μM.

The target in experiment [4] is T4, 348 GPCRs (Homo sapiens, UniProt Q7Z7M1).
T4 construct: expressed in transfected cells; host or cells: HEK293A
T4 sequence (Q7Z7M1 whole entry): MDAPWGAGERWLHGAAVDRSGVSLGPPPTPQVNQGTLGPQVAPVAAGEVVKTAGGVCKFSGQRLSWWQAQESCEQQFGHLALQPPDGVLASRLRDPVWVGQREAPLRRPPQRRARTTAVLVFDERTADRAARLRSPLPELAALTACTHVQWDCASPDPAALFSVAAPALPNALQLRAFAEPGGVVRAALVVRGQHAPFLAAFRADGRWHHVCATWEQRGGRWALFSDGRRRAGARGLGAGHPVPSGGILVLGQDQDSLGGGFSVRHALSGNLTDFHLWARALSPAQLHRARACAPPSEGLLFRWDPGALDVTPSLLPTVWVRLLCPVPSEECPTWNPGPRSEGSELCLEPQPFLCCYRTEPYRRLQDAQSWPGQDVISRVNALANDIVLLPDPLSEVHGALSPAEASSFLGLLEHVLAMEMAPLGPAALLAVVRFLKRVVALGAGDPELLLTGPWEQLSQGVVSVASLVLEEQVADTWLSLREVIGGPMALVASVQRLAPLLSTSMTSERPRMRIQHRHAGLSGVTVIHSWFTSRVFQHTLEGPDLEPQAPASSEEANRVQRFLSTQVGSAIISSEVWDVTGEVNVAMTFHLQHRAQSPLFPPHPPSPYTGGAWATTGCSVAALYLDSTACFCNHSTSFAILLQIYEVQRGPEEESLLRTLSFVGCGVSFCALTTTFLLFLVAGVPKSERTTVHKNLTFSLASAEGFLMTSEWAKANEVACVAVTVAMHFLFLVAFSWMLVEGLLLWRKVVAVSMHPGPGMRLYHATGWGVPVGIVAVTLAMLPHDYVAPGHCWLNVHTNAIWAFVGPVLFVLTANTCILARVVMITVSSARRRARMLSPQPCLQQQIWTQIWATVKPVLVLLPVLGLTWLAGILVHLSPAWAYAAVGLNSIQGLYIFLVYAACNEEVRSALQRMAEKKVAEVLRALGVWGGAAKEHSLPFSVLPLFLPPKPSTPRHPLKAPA
Conditions: 10µM, Favipiravir 100μM.

Experiment [5] deals with T5, 348 GPCRs (Homo sapiens, UniProt Q6U736).
T5 construct: expressed in transfected cells; host or cells: HEK293A
T5 sequence (Q6U736 whole entry): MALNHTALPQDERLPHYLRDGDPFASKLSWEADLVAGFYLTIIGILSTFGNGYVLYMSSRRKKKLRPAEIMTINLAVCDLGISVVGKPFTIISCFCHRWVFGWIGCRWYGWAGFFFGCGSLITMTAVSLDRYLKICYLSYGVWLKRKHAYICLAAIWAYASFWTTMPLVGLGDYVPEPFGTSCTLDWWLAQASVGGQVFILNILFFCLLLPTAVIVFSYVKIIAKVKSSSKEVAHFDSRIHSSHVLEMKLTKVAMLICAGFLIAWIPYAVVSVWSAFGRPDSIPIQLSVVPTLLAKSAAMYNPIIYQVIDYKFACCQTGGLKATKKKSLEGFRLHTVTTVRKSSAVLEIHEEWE
The settings on record: 10µM, Favipiravir 100μM.

Experiment [6] addresses T6, 348 GPCRs (Homo sapiens, UniProt Q9UNW8).
T6 construct: expressed in transfected cells; host or cells: HEK293A
T6 sequence (Q9UNW8 1-380): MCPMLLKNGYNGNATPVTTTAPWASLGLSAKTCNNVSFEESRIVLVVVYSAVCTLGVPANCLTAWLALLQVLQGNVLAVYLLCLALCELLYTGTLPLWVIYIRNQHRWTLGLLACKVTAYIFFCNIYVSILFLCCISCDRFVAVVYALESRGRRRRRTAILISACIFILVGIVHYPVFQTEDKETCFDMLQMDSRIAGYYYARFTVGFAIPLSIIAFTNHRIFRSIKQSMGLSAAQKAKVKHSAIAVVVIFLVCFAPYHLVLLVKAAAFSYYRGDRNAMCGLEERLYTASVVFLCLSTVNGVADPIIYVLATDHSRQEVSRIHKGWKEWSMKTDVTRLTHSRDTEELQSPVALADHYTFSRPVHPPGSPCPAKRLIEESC
The settings on record: G2A (GPR132); 10µM, Favipiravir 100μM.

The target of experiment [7] is T7, 348 GPCRs (Homo sapiens, UniProt P41587).
T7 construct: expressed in transfected cells; host or cells: HEK293A
T7 sequence (P41587 24-438): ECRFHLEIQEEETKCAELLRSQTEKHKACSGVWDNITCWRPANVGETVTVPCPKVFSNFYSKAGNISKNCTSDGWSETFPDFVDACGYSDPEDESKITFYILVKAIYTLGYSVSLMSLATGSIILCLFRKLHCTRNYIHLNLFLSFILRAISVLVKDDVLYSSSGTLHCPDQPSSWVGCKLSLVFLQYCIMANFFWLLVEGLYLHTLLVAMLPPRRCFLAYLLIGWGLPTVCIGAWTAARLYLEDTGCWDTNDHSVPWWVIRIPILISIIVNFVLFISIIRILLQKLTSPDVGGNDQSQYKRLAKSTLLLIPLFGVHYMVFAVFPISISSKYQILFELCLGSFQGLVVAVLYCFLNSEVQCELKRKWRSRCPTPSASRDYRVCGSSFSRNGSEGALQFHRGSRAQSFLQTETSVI

For experiment [8], the target named is T8, 348 GPCRs (Homo sapiens, UniProt P49190).
T8 construct: expressed in transfected cells; host or cells: HEK293A
T8 sequence (P49190 25-550): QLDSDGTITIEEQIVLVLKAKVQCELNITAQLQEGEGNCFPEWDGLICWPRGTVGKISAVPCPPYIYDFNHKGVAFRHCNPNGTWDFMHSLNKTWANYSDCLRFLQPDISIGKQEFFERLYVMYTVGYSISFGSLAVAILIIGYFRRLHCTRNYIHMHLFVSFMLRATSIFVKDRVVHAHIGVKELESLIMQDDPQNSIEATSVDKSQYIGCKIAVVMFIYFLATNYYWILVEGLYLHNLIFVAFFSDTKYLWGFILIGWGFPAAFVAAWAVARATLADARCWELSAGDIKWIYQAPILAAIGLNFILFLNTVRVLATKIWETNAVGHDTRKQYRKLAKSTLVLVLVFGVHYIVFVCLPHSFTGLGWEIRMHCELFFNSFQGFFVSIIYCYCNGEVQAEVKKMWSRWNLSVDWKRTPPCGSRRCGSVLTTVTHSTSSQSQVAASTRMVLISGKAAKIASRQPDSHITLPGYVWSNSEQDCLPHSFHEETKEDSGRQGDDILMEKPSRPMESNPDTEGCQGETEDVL
Conditions: 10µM, Favipiravir 100μM.

The target in experiment [9] is T9, 348 GPCRs (Homo sapiens, UniProt Q96P65).
T9 construct: expressed in transfected cells; host or cells: HEK293A
T9 sequence (Q96P65 1-431): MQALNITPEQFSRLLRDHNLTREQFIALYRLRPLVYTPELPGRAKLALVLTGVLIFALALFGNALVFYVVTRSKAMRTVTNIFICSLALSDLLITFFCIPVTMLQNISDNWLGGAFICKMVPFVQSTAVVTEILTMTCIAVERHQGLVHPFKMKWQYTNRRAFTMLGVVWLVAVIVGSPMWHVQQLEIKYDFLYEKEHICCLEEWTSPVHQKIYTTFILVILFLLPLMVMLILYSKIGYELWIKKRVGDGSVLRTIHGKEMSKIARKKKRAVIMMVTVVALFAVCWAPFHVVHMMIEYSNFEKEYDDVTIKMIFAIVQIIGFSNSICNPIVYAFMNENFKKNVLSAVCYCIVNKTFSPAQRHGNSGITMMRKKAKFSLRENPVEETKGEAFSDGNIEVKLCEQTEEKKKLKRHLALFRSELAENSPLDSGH
The settings on record: 10µM, Favipiravir 100μM.

Experiment [10] addresses T10, 348 GPCRs (Homo sapiens, UniProt P22888).
T10 construct: expressed in transfected cells; host or cells: HEK293A
The settings on record: 10µM, Favipiravir 100μM.

Experiment [11] addresses T11, 348 GPCRs (Homo sapiens, UniProt P04201).
T11 construct: expressed in transfected cells; host or cells: HEK293A
T11 sequence (P04201 1-325): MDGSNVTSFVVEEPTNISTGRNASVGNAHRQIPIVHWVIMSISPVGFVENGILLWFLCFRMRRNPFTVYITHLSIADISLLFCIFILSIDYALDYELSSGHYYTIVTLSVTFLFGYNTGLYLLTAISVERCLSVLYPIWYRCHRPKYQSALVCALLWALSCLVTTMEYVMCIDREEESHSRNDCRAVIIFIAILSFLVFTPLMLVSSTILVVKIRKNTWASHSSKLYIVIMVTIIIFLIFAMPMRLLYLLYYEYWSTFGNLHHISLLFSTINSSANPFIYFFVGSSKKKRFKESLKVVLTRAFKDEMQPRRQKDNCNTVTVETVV

[12] abbreviates: read-out: % GPCR activation compared to TPA, GPCR GPR52 (G protein-coupled receptor 52).
Where [13] appears, read: read-out: % GPCR activation compared to TPA, GPCR GPR55 (G Protein-Coupled Receptor 55).
[14] abbreviates: read-out: % GPCR activation compared to TPA, NPBWR2 (neuropeptides B and W receptor 2).
The mark [15] stands for this setting: read-out: % GPCR activation compared to TPA, GPR144 (Adhesion G Protein-Coupled Receptor D2 (ADGRD2)).
The mark [16] stands for this setting: read-out: % GPCR activation compared to TPA, OPN5 (opsin 5).
Where [17] appears, read: read-out: % GPCR activation compared to TPA, GPCR VIPR2 (vasoactive intestinal peptide receptor 2).
[18] abbreviates: read-out: % GPCR activation compared to TPA, PTH2R (parathyroid hormone 2 receptor).
The mark [19] stands for this setting: read-out: % GPCR activation compared to TPA, QRFP (pyroglutamylated RFamide peptide receptor).
Setting [20] is: read-out: % GPCR activation compared to TPA, LHCGR (luteinizing hormone/choriogonadotropin receptor).
The mark [21] stands for this setting: read-out: % GPCR activation compared to TPA, GPCR MAS1 (MAS1 oncogene).
Setting [22] is: NPBWR2 (neuropeptides B and W receptor 2), read-out: % GPCR activation compared to TPA.
The mark [23] stands for this setting: GPR144 (Adhesion G Protein-Coupled Receptor D2 (ADGRD2)), read-out: % GPCR activation compared to TPA.
Where [24] appears, read: OPN5 (opsin 5), read-out: % GPCR activation compared to TPA.
Setting [25] is: PTH2R (parathyroid hormone 2 receptor), read-out: % GPCR activation compared to TPA.
The mark [26] stands for this setting: QRFP (pyroglutamylated RFamide peptide receptor), read-out: % GPCR activation compared to TPA.
Where [27] appears, read: LHCGR (luteinizing hormone/choriogonadotropin receptor), read-out: % GPCR activation compared to TPA.
Setting [28] is: GPCR GPR52 (G protein-coupled receptor 52), read-out: % GPCR activation compared to TPA.
[29] abbreviates: GPCR GPR55 (G Protein-Coupled Receptor 55), read-out: % GPCR activation compared to TPA.
[30] abbreviates: GPCR VIPR2 (vasoactive intestinal peptide receptor 2), read-out: % GPCR activation compared to TPA.
[31] abbreviates: GPCR MAS1 (MAS1 oncogene), read-out: % GPCR activation compared to TPA.

Structures are written as SMILES. Where two headings read alike, the source gives them in different places.

T2 sequence (Q9Y2T6 whole entry): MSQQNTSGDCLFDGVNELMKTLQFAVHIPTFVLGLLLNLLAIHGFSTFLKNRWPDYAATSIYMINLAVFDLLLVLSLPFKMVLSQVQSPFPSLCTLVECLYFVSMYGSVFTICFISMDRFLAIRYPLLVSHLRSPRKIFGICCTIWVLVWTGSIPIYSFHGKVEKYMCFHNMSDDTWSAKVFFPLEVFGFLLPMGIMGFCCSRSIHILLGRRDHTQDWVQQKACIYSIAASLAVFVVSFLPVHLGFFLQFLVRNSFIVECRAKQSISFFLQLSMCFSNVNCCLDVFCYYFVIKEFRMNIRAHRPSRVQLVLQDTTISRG
T1 sequence (Q9Y2T5 whole entry): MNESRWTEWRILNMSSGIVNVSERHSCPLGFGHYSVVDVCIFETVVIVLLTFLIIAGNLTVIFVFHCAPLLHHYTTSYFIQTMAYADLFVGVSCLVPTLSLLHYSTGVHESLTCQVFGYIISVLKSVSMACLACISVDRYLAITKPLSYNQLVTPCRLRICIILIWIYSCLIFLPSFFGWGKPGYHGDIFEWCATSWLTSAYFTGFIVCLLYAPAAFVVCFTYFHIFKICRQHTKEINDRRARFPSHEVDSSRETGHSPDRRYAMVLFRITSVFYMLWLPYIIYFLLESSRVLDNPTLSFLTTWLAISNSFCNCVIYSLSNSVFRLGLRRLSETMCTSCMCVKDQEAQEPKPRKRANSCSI
T10 sequence (P22888 27-699): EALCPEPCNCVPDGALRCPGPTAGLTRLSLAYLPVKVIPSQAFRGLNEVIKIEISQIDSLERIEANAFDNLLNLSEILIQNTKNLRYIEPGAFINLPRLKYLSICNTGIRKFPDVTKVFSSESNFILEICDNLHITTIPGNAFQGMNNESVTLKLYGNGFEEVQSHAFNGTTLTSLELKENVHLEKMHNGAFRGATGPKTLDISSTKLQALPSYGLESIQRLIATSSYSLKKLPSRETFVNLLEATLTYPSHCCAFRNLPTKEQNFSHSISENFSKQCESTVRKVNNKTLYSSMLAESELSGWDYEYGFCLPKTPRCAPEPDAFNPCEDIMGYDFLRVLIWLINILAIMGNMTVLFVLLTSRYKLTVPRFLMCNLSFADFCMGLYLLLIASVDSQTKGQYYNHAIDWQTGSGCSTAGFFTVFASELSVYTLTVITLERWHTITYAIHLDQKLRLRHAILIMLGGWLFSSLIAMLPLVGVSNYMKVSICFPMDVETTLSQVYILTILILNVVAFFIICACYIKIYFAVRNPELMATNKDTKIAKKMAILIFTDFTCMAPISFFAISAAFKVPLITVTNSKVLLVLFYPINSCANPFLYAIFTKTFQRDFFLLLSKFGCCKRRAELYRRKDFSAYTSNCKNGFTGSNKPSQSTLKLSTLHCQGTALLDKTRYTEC

For the compound `CC(C)OC(=O)[C@H](C)N[P@](=O)(OC[C@H]1O[C@@H](n2ccc(=O)[nH]c2=O)[C@](C)(F)[C@@H]1O)Oc1ccccc1` [sofosbuvir], the activation at 10 µM in experiment [1] (setting [12]) was -2.66%; in experiment [2] (setting [13]), -0.223%; in experiment [3] (setting [14]), -2.75%; in experiment [7] (setting [17]), 1.3%; in experiment [11] (setting [21]) it was 2.48%. Also, the activation at 100 µM was 0.00791% in experiment [4] (setting [15]); -0.631% in [5] (setting [16]); -1.19% in experiment [8] (setting [18]); -1.05% in experiment [9] (setting [19]); 1.92% in [10] (setting [20]). Further, the “% GPCR activation compared to TPA” value in [6] is reported as -1.375%.

`NC(=O)c1nc(F)cnc1O` [favipiravir, 6-fluoro-3-hydroxy-2-pyrazinecarboxamide]: the activation at 100 µM in [1] (GPCR GPR52 (G protein-coupled receptor 52), 100μM, read-out: % GPCR activation compared to TPA) is -2.31%; in experiment [2] (GPCR GPR55 (G Protein-Coupled Receptor 55), 100μM, read-out: % GPCR activation compared to TPA), -0.0195%; in [4] (setting [23]), -0.934%; in experiment [5] (setting [24]), -1.8%; in experiment [7] (GPCR VIPR2 (vasoactive intestinal peptide receptor 2), 100μM, read-out: % GPCR activation compared to TPA), -0.699%; in experiment [8] (setting [25]), 0.392%. For the same compound, the activation at 100 µM in [9] (setting [26]) was -2.34%; in experiment [10] (setting [27]), 0.315%; in experiment [11] (GPCR MAS1 (MAS1 oncogene), 100μM, read-out: % GPCR activation compared to TPA), -7.84%. The activation at 10 µM in experiment [3] (setting [22]) was -4.53%. In addition, the “% GPCR activation compared to TPA” value in experiment [6] amounted to 7.4%.

With `CCC(CC)COC(=O)[C@H](C)N[P@](=O)(OC[C@H]1O[C@@](C#N)(c2ccc3c(N)ncnn23)[C@H](O)[C@@H]1O)Oc1ccccc1` [remdesivir], the activation at 10 µM was -0.476% in experiment [1] (setting [12]); -2.75% in experiment [2] (setting [13]); -4.48% in [3] (setting [14]); 0.502% in experiment [7] (setting [17]); 21.3% in [11] (setting [21]). Further, the activation at 100 µM in experiment [4] (setting [15]) was 0.938%; in experiment [5] (setting [16]), -2.25%; in experiment [8] (setting [18]) it was 0.518%; in [9] (setting [19]), -1.33%; in experiment [10] (setting [20]) it was 0.234%. Moreover, the “% GPCR activation compared to TPA” value in [6] is 10.99%.

Turning to `N#C[C@@]1(c2ccc3c(N)ncnn23)O[C@H](CO)[C@@H](O)[C@H]1O` [GS441524], the activation at 10 µM in [1] (setting [28]) is -1.15%; in [2] (setting [29]), -0.0977%; in [3] (setting [22]) it was -1.66%; in experiment [7] (setting [30]), -0.864%; in experiment [11] (setting [31]), -19.1%. Moreover, the activation at 100 µM was -0.695% in [4] (setting [23]); -1.77% in experiment [5] (setting [24]); -1.76% in [8] (setting [25]); -0.975% in [9] (setting [26]); 0.261% in experiment [10] (setting [27]). In addition, the “% GPCR activation compared to TPA” value in [6] was -8.135%.

In the case of `CC(C)C(=O)OC[C@H]1O[C@@H](n2ccc(NO)nc2=O)[C@H](O)[C@@H]1O` [molnupiravir], the activation at 10 µM in experiment [1] (setting [28]) is -1.34%; in experiment [2] (setting [29]), 0.0448%; in experiment [3] (setting [22]) it was -2.92%; in experiment [7] (setting [30]), -0.156%; in [11] (setting [31]), -15.3%. The activation at 100 µM in [4] (setting [23]) is -1.45%; in [5] (setting [24]), -2.56%; in [8] (setting [25]) it was -0.481%; in [9] (setting [26]), -2.8%; in experiment [10] (setting [27]) it was -0.797%. In addition, the “% GPCR activation compared to TPA” value in [6] is given as -1.8016%.
